The source made the active and inactive calls.
Columns and labels:
SN12K1 = assay: cells; type: functional; conditions: Homo sapiens
[1] = target: T1, Microphthalmia-associated transcription factor (Homo sapiens, UniProt O75030); assay: reducers of TRPM1 reporter luminescence, concentration series – cell-based, SK-MEL-5, cherry-picked, set 3, MITF inhibitor project, dose response (AID 493073); type: functional;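 also: SK-MEL-5 melanoma cells with luciferase driven by the MITF target TRPM1 promoter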
T1 sequence (O75030 whole entry): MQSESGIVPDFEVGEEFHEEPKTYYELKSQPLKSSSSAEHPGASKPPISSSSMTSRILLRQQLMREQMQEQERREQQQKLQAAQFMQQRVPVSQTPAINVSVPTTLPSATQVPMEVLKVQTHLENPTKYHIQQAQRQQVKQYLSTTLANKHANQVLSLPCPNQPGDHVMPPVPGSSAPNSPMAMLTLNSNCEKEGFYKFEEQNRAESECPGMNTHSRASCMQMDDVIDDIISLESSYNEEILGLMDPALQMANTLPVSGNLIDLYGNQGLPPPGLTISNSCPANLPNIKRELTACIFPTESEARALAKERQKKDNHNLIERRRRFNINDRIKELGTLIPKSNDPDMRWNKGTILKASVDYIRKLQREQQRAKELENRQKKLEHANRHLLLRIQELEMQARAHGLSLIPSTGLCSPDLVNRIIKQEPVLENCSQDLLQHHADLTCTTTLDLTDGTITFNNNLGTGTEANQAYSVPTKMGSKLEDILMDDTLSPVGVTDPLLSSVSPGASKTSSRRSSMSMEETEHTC

INS1 = assay: INS-1E survival protection against cytokine death – cell-based, luminescence, retest, dose response (AID 449756); type: functional; conditions: Rattus norvegicus;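 also: cell death triggered by IL-1 beta plus TNF-alpha plus IFN-gamma mixture; protective hits raise ATP signal compared with cytokine alone wells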
Fatty acid synthase [2] = target: T2, Fatty acid synthase (Homo sapiens, UniProt P49327); assay: inhibition of human FAS-TE enzyme activity – biochemical, endpoint fluorescence intensity, uHTS hits, dose response (AID 624327); type: functional;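 also: fluorescence from hydrolysis of an O-methyl fluorescein acyl ester substrate by the enzyme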
Fatty acid synthase [3] = target: T2, Fatty acid synthase; assay: inhibition of human FAS-TE enzyme activity – biochemical, kinetic fluorescence intensity, dose response (AID 624326); type: functional;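 also: rate of fluorescence rise from hydrolysis of a fluorogenic O-methyl fluorescein ester substrate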
[4] = target: T3, Corticotropin-releasing factor receptor 2/Corticotropin-releasing factor-binding protein (Homo sapiens, UniProt P24387+Q13324); assay: Dose Response confirmation of uHTS hits for small molecule antagonists of the CRF-binding protein and CRF-R2 receptor complex.; type: functional; conditions: read-out: IC50_Mean
T3 sequence (Q13324 whole entry): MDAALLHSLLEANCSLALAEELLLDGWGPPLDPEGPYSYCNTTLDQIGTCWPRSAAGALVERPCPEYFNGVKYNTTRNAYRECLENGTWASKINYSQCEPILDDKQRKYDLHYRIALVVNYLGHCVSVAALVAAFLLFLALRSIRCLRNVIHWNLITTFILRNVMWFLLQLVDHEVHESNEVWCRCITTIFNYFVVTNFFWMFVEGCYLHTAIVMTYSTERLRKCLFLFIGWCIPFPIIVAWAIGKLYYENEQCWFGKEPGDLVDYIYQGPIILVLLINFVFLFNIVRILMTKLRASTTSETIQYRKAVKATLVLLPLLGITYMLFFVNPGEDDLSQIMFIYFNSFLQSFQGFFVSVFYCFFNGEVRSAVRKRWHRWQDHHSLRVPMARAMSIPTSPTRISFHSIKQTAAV
T3 sequence (P24387 whole entry): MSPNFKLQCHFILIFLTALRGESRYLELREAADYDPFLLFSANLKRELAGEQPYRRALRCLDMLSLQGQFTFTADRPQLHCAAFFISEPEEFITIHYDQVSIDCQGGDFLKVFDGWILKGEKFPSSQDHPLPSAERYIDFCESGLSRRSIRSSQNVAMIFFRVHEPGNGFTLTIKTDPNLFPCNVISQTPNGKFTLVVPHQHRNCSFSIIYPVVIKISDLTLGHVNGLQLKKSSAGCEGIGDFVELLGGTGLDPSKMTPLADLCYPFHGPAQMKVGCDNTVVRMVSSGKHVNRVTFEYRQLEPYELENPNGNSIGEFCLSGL

[5] = target: T3, Corticotropin-releasing factor receptor 2/Corticotropin-releasing factor-binding protein; assay: activators of CRF receptor 2 with binding protein – uHTS hits, confirmation (AID 602473); type: functional; conditions: read-out: EC50_Mean
[6] = target: Glucose-6-phosphate 1-dehydrogenase (Homo sapiens, UniProt P11413); assay: inhibition of Homo sapiens G6PD, dose series – biochemical, fluorescence, selectivity assay for P. falciparum G6PD inhibitor project, dose response (AID 504792); type: functional
[7] = target: DNA dC->dU-editing enzyme APOBEC-3G (Homo sapiens, UniProt Q9HC16); assay: Dose Response confirmation of small molecule APOBEC3G DNA Deaminase Inhibitors via a fluorescence-based single-stranded DNA deaminase assay. [Related pubchem assays (depositor defined):AID493012, AID493028]; type: functional
cells = type: functional
Nonstructural protein 1 = Nonstructural protein 1 (Influenza A virus, UniProt Q194T2); type: functional, Influenza A virus (A/California/07/2009(H1N1))
Paired box protein Pax-8 = Paired box protein Pax-8 (Homo sapiens, UniProt Q06710); assay: PAX8 transcriptional activity inhibition in RMG-I – RMG-I cells, luciferase, cherry-pick, dose response (AID 687027); type: functional, cell-based;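 also: luciferase reporter driven by Pax8 target thyroperoxidase promoter measured by SteadyGlo luminescence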
Chain of Paired box protein Pax-8 (Q06710 whole entry): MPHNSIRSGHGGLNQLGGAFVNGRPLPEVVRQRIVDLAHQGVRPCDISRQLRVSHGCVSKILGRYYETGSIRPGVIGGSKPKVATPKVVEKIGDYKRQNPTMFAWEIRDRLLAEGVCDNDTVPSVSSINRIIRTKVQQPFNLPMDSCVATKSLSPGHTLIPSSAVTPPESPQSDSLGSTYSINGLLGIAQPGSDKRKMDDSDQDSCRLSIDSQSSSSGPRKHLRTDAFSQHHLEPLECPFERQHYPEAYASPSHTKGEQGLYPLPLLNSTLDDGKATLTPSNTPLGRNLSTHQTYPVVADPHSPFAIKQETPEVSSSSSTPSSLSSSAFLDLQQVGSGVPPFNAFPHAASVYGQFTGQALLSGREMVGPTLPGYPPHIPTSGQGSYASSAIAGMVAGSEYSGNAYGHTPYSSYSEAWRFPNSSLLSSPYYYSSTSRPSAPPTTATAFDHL

T2 sequence (P49327 whole entry): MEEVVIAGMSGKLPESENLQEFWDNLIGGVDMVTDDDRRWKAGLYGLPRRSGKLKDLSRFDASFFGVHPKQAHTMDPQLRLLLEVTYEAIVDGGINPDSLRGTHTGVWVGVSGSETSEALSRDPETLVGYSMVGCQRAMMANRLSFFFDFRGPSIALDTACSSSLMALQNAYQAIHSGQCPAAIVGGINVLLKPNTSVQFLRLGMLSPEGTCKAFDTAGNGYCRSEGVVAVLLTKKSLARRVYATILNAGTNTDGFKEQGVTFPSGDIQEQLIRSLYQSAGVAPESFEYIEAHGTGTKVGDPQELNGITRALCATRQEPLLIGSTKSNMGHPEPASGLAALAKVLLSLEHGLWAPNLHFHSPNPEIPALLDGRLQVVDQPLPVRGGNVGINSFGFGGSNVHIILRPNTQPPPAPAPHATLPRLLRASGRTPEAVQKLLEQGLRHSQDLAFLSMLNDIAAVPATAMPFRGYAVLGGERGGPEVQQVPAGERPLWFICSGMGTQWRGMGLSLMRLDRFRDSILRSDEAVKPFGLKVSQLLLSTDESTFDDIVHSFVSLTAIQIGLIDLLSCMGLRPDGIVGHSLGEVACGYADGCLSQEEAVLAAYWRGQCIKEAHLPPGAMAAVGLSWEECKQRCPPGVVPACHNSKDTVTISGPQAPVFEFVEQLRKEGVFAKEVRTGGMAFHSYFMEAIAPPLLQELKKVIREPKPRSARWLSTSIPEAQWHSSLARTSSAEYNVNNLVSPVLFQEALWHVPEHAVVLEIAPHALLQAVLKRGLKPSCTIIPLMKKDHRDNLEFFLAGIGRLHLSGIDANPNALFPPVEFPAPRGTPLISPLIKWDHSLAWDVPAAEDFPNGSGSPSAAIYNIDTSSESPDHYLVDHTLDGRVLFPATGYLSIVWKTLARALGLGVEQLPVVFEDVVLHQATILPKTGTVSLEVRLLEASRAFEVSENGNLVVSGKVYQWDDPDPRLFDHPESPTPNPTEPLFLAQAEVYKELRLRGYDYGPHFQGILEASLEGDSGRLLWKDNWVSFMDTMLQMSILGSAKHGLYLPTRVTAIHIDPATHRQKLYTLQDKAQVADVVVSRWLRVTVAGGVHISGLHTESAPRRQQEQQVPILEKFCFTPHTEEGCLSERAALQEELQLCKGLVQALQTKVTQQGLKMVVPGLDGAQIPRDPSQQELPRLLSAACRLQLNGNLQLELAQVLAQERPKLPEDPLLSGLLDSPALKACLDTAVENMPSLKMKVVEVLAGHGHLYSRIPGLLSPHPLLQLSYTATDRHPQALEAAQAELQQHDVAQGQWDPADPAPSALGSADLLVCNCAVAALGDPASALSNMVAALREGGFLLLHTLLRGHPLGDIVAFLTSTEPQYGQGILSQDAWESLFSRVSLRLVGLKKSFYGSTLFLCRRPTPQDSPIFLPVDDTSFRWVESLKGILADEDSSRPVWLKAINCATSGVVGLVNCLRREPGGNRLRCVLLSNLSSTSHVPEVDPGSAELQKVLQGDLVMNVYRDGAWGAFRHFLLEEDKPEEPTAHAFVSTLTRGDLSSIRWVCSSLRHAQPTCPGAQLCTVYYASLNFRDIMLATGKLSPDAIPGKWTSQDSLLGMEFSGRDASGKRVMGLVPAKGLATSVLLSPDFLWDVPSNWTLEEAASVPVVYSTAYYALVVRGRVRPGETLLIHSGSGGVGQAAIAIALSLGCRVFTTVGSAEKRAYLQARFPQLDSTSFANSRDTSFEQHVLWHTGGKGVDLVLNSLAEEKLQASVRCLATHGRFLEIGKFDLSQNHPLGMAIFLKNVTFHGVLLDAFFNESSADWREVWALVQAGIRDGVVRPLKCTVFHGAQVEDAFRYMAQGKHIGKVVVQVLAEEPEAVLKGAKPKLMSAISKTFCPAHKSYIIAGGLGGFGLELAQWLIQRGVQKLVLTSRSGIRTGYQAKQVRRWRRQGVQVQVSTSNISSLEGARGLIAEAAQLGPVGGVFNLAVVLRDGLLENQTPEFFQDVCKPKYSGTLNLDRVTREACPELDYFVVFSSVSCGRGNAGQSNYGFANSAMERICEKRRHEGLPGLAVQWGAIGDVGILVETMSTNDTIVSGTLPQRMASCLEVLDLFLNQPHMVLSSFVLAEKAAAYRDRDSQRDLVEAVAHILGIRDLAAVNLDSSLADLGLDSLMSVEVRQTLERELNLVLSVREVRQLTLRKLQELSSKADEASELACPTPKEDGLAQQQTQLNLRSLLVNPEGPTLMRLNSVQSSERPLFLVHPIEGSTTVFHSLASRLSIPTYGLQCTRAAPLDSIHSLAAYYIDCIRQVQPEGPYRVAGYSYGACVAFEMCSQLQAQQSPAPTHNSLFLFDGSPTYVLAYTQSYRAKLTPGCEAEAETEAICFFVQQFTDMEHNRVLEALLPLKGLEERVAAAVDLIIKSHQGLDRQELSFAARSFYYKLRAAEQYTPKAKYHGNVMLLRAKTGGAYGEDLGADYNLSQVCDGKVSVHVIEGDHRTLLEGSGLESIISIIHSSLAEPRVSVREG
Chain of Glucose-6-phosphate 1-dehydrogenase (P11413 whole entry): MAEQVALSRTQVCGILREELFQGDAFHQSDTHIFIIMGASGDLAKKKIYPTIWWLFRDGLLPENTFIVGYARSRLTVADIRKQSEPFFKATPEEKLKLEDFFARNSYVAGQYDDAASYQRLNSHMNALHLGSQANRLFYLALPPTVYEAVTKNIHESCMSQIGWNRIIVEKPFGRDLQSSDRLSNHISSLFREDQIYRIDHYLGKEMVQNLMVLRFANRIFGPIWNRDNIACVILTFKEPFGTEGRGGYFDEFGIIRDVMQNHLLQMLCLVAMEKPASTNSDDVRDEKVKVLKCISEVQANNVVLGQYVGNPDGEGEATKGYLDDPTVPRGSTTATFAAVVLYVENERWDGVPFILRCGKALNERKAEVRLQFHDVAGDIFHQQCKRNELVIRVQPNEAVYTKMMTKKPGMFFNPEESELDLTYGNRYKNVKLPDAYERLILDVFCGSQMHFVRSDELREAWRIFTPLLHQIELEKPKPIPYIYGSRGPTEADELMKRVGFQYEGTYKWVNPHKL
Chain of DNA dC->dU-editing enzyme APOBEC-3G (Q9HC16 whole entry): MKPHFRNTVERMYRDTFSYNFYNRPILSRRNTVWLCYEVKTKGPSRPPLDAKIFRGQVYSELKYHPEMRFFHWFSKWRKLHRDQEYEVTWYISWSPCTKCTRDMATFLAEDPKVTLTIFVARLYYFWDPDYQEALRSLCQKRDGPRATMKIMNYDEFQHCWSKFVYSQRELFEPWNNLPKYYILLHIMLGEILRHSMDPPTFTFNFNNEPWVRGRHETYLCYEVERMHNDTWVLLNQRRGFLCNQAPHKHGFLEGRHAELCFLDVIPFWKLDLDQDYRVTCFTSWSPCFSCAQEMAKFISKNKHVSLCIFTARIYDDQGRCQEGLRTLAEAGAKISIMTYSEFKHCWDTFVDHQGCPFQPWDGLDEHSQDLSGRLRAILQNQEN
Chain of Nonstructural protein 1 (Q194T2 whole entry): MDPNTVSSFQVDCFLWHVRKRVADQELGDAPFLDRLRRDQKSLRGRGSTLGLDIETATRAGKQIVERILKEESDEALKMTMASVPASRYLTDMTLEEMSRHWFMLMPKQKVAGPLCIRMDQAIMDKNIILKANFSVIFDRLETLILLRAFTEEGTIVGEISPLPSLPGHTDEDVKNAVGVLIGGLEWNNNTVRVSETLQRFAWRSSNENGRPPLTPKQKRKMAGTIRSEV

Compound: Nc1ncnc2c1ncn2C1C(O)C=C(CO)C1O (configuration not stated)
- GI50 (SN12K1): > 625 µM (inactive)

Compound: COc1ccc(Cn2c(-c3ccc(C)cc3)c[n+]3ccccc23)cc1
- AC50 [1]: 2.89 µM (active)
- AC50 (INS1): 4.52 µM (active)

Compound: Cc1ccc(-c2c(C(=O)N(C)Cc3ccccc3)oc(=O)c3ccccc23)cc1
- IC50 (Fatty acid synthase [2]): 11.6 µM (active)
- IC50 (Fatty acid synthase [3]): 12.3 µM (active)

Compound: C/C=C/C=C/C(=O)OC(C)C(=O)Nc1cc([N+](=O)[O-])ccc1OC (configuration not stated)
- IC50 [4]: > 47.1 µM (inactive)
- EC50 [5]: > 53 µM (inactive)
- IC50 (Fatty acid synthase [2]): 4.02 µM (active)
- IC50 (Fatty acid synthase [3]): 4.79 µM (active)

Compound: COC(=O)CCC(=O)Nc1sc(Cc2ccccc2)c(C)c1C(N)=O
- IC50 [6]: > 80 µM (inactive)
- IC50 [7]: 31.1 µM (active)
- IC50 (cells): 49 µM (active)

Compound: CC(C)c1nnc(NC(=O)c2cc3ccccc3o2)s1
- IC50 [6]: > 80 µM (inactive)

Compound: CCOc1ccccc1N(CC)C(=O)c1ccc2c(=O)n3c(nc2c1)CCCCC3
- IC50 (Fatty acid synthase [2]): 3.88 µM (active)
- IC50 (Fatty acid synthase [3]): 3.45 µM (active)

Compound: O=C(NN=Cc1c(O)ccc2ccccc12)c1ccncc1
- IC50 (Nonstructural protein 1): 11.9 µM (active)
- AC50 (Paired box protein Pax-8): 1.17 µM (active)

Source: ChEMBL document CHEMBL1201862, “PubChem BioAssay data set” (2004)
